Laboratory results as given in patent US20240293337A1, “USE OF DOXERCALCIFEROL TO TREAT AND/OR PREVENT UTERINE FIBROIDS OR POLYCYSTIC OVARY SYNDROME” (priority 2023, published 2024).

How the values were obtained:
[1] = Glucose tolerance test in PDX UF mice; assay type: in vivo, NOD/SCID mice; settings: 6 weeks after treatment, vs control
Method: (§1) After xenograft mice undergo intraperitoneal injection of doxercalciferol (300 ng/kg, 3 times per week) or saline for 6 weeks. Body weight is monitored weekly during doxercalciferol treatment. Six weeks after doxercalciferol treatment insulin resistance is assessed using GTT and then mice are anesthetized and blood is collected to measure liver enzyme and AMH levels, ovary tissue is removed for histological analysis, total RNA is extracted for sequencing, and tumor size is measured with a digital caliper.
Glucose tolerance testing is performed on PDX UF mice 6 weeks after doxercalciferol treatment. Mice are tested either without fasting or after fasting for 16 h (5 p.m. to 9 a.m.), with free access to drinking water, after which they receive an intra-peritoneal (i.p.) injection of D-glucose (2.0 g/kg body weight). Blood glucose level is measured at 0, 15, 30, 60, 90, and 120 min following glucose injection using a Bayer glucose monitor (Roche Diagnostics Corp, IN, USA).

H295R cells = assay: H295R theca-like cells, cell morphology and cell number after 24 h treatment; assay type: cell-based, human; settings: 100 nM
Method: Human adrenocortical-carcinoma cells (H295R cells) are used as an in vitro cell culture model of ovarian theca cells to assess androgen production. H295R cells are purchased from ATCC (Manassas, VA, USA, cat. no. ATCC® CRL-2128™) and cultured per the recommended guidelines. These cells are isolated from a donor. Briefly, H295R cells are cultured in flasks pre-coated with extracellular matrix (Gibco, USA, cat. no. S-006-100) with DMEM/F12 (Gibco, cat. no. 21041025) and 2.5% Nu-Serum (Corning, USA). The cells are subcultured at a ratio of 1:4, resulting in a cell density of approximately 3×10^6 in T75 flasks.
H295R cells are subcultured in T75 flasks for 24 hours. Cells are then treated for 24 hours with serum free basal media as a control or doxercalciferol at 1 nM, 10 nM, or 100 nM diluted in basal media (serum-free) at a 1:1 ratio. After the incubation period, cells are imaged and analyzed for morphology and cell count. Cells are then collected for analysis of steroidogenesis-related gene expression. Cell culture media are collected and used for testosterone quantification using ELISA based Testosterone Parameter Assay Kit (R&D system) per the manufacturer's protocol. The testosterone level is quantified using a multimode microplate reader system, Varioskan LUX Multimode Microplate Reader (Thermo Fisher).

[2] = Body weight in letrozole induced PCOS mouse model; assay type: in vivo, C57BL/6 mice; settings: 300 ng/kg i.p. 3 times per week for 6 weeks
Method: 2.5-week-old female C57BL/6 mice (Charles River, MA, USA) are housed in a vivarium for 1 week under specific pathogen-free conditions. The animal experiment protocol for this study is approved, and all animal experiments are performed in compliance with policies and guidelines for use of laboratory animals. At 3.5 weeks of age, mice (n=11/group) are subcutaneously implanted with a placebo or 5 mg letrozole (LTZ) pellet (Innovative Research of America, Sarasota, FL, USA), which provides a constant release of LTZ (50 μg/day). Body weight is monitored weekly before and post-implantation. Body weight and insulin resistance (measured by glucose tolerance test, GTT) are used to monitor development of PCOS characteristics. Five weeks after placebo or LTZ pellet implantation, mice undergo intraperitoneal injection of doxercalciferol (300 ng/kg) or saline 3 times per week for 6 weeks. Six weeks after doxercalciferol treatment, the mice are anesthetized and ovary, uterus, gonadal white fat, kidney, and liver tissue are collected. Each of these tissues are fixed in 4% paraformaldehyde for further histological analysis.

[3] = Serum chemistry in PCOS mice; assay type: in vivo, C57BL/6 mice; settings: PCOS mice treated with doxercalciferol, n 7
Method: (§2) Five weeks after placebo or LTZ pellet implantation, mice undergo intraperitoneal injection of doxercalciferol (300 ng/kg) or saline 3 times per week for 6 weeks. Six weeks after doxercalciferol treatment, the mice are anesthetized and ovary, uterus, gonadal white fat, kidney, and liver tissue are collected. Each of these tissues are fixed in 4% paraformaldehyde for further histological analysis.
Blood is collected from all groups by cardiac exsanguination under isoflurane anesthesia: serum is separated and stored at −80° C. Serum chemistry analysis including BUN, ALT, ALP, AST, TBIL, calcium, TP, ALB, and NA+ is performed in University of Chicago Animal Resource Center (UC ARC) with VETSCAN® VS2 Chemistry Analyzer (Zoetis).

[4] = tested on: letrozole induced polycystic ovary syndrome (PCOS) mouse models; assay: Breeding experiments in PCOS mice; assay type: in vivo, C57BL/6 mice
Method: as §2
After doxercalciferol treatment, 6 mice per group from the PCOS experiments are randomly selected for the breeding experiment. One male C57BL/6 breeder mouse is used for every two female mice. The male and female mice are caged together for 10 days. Mating is determined by the presence of sperm plug in the vagina. The pregnancy rate, required time for pregnancy, average number of pups, total live and dead pups, and mouse pup weight and growth rate at birth and days 5 and 10 postpartum are measured.

ovary = assay: Ovarian follicle counts in PDX UF mice (H&E histology); assay type: in vivo, NOD/SCID mice; settings: vs untreated control
Method: as §1
Ovary tissue is collected and fixed in 4% paraformaldehyde. Tissue sections are stained with hematoxylin-eosin (H&E). Histological analyses are performed.

[5] = PCOS mice, 300 ng/kg i.p. 3 times per week for 6 weeks

C=C1/C(=C\C=C2/CCC[C@]3(C)[C@@H]([C@H](C)/C=C/[C@H](C)C(C)C)CC[C@@H]23)C[C@@H](O)C[C@@H]1O [doxercalciferol]
fasting glucose levels ([1]; fasting 16 h): tends to lower | glucose levels ([1]; without fasting): tends to lower | cell morphology (H295R cells): most of the cells in the 100 nM doxercalciferol treatment group are dead | cell number (H295R cells; vs other groups): significantly fewer cells | mouse body weight after treatment, vs control mice [2]: no significant weight difference | mouse body weight after treatment, vs untreated PCOS mice [2]: PCOS mice weigh significantly more than both control and doxercalciferol treated PCOS mice | mouse body weight during treatment ([2]; PCOS mice): lowers PCOS mouse weight | ALB, Mean [3]: 3.9 g/dL | ALP, Mean [3]: 76 U/L | ALT, Mean [3]: 66 U/L | AST, Mean [3]: 144 U/L | BUN, Mean [3]: 22 mg/dL | CA, Mean [3]: 12.9 mg/dL | NA+, Mean [3]: 149 mmol/L | TBIL, Mean [3]: 0.4 mg/dL | TP, Mean [3]: 4.7 g/dL | average number of live pups, vs control mice [4, 5]: no significant difference | average number of live pups, vs untreated PCOS [4, 5]: increased the average number of live pups | required time for pregnancy after introduction to a potential mate [4, 5]: about 2 weeks | pregnancy rate ([4]; PCOS mice, 300 ng/kg i.p. 3 times per week for 6 weeks (PCOS 20%, control 83.3%)): 50% | total number of live pups, vs untreated PCOS ([4]; PCOS mice, 300 ng/kg i.p. 3 times per week for 6 weeks, not to the levels of control mice): increases the total number of live pups | average weight of pups, vs control mice ([4]; pups of treated PCOS mice, 5 days postpartum): significantly lower | average weight of pups, vs control and PCOS ([4]; pups of treated PCOS mice, 10 days postpartum): no significant difference | average weight of pups, vs control mice ([4]; pups of treated PCOS mice, at birth): significantly lower | growth of pups, vs control and PCOS ([4]; pups of treated PCOS mice, at birth, 5 days and 10 days postpartum): no significant difference | number of follicles at the primordial, primary, secondary, or preantral phases (ovary): does not significantly affect | total number of follicles in the ovary (ovary): does not significantly affect
